# Literature values, collected in patent US20100215763A1, “Method of using the body's alternative cellular energy pigments (ACE-pigments) in the therapy of diseases” (priority 2009, published 2010).
# Test system: HSV and HZV skin lesions
compound,measurement,setting,value
Cc1cc2nc3ccc(N(C)C)cc3nc2cc1N.Cl [neutral red],healing of treated HSV and HZV skin lesions,neutral red applied to active lesions followed by UV illumination,expedited healing
same,healing of distant HSV lesions,"patients with lesions at more than one location, neutral red and UV limited to a single lesion",expedited healing in all lesions
